Measured values as given in ChEMBL document CHEMBL3507680, “University of Dundee, Gates Library screen for HepG2 cell viability”.

Assay: Human HepG2 cell viability assay in 384 well format
Type: toxicity, cell-based
Set-up: dose 125 nL, time 70.5 hour; cytotoxicity at 70.5 h: concentration not given beside the values
Details: HepG2 cells, read-out: Inhibition

Row | SMILES | cytotoxicity at 70.5 h
1 | Cc1cc(CN(C)C(=O)c2ccc(Cl)cc2N2CCCC2=O)no1 | -12.5%
2 | CCNc1cc2c(nn1)CCN(C(=O)C1CCc3ccccc31)C2 (centres undefined) | -0.738%
3 | COc1ccccc1C(C)NC(=O)N1CCC(n2cncn2)CC1 (centres undefined) | -7.85%
4 | CCn1cnnc1C1CCN(C(=O)c2cc3c(s2)CCOC3)CC1 | -9.84%
5 | Cn1cnnc1C1CCN(C(=O)c2cc3c(s2)CCC3)CC1 | -9.61%
6 | Cc1oc(-c2ccco2)nc1CN1CCCC(Cn2cncn2)C1 (centres undefined) | 39.6%
7 | CCOCC(O)CN1CCN(C(=O)c2ccc3c(c2)COC3)CC1 (centres undefined) | -8.02%
8 | Cc1cccc(C)c1OCCNC(=O)C(C)n1cncn1 (centres undefined) | -11.4%
9 | O=C(Nc1cccnc1)C1=NN(c2ccccc2)C(=O)CN1 | 6.02%
10 | Cc1noc(CN2CCN(C(=O)N(C)C)CC2)n1 | -11%
11 | CC(C(=O)NCCOc1ccc2c(c1)CCC2)n1cncn1 (centres undefined) | 7.17%
12 | CC1CN(Cc2noc(C3CC3)n2)CCN1Cc1noc(C2CC2)n1 (centres undefined) | -13.7%
13 | Cc1ccc(C(=O)N2CCN(CC(C)O)CC2)cc1S(C)(=O)=O (centres undefined) | -6.11%
14 | CCc1nnc2n1CCN(C(=O)Cc1nc(-c3ccco3)oc1C)C2 | 10.8%
15 | COC(=O)CN1CCCN(C(=O)CCOc2cccc(C)c2C)CC1 | -5.13%
16 | COc1c(C2CCCN2Cc2cccc(C(N)=O)c2)c(C)nn1C (centres undefined) | -2.05%
17 | Cc1nn(C)c(Cl)c1C1CCCN1Cc1ccc(C(N)=O)cc1 (centres undefined) | -7.15%
18 | CCc1nnc2n1CCN(C(=O)c1ccc(-c3ccco3)[nH]c1=O)C2 | -6.59%
19 | Cc1cccc(OCCC(=O)N2CCN(CC(=O)NC3CC3)CC2)c1C | -11.9%
20 | CCc1noc(CN2CCCN(C(C)=O)CC2)n1 | -6.42%
21 | CCc1noc(CN2CCN(C(=O)C3CC3)CC2)n1 | -9.23%
22 | CC(C)(O)CN1CCN(C(=O)c2ccc3c(c2)COC3)CC1 | -5.78%
23 | COCCCNC(=O)CN1CCC(N2CCN(C)C2=O)CC1 | -10.4%
24 | CCOCc1cc(CNC2CCCc3c2cnn3CC)ccc1OC (centres undefined) | -1.88%

Row | SMILES | cytotoxicity at 70.5 h
25 | CCc1nnsc1C(=O)N1CCCC1c1c(C)nn(C)c1OC (centres undefined) | 13.9%
26 | Cc1ccccc1CN(C)C(=O)CN1CCOC(Cn2cncn2)C1 (centres undefined) | 1.73%
27 | COc1c(C)cnc(CN2CCOC(Cn3cncn3)C2)c1C (centres undefined) | -3.24%
28 | CC1CN(Cc2ccc(-n3cccn3)cc2)CCO1 (centres undefined) | 0.696%
29 | CS(=O)(=O)NCCCN1CCCC1c1cccc(Br)c1 (centres undefined) | -9.99%
30 | CCn1cc(CN2CCCN(C(=O)c3sc(C)nc3C)CC2)cn1 | 4.77%
31 | CCn1cc(CN2CCCN(C(=O)c3ccc(C#N)cc3)CC2)cn1 | -4.62%
32 | Cc1cnc(CN2CCCC2c2cnn(C)c2)cn1 (centres undefined) | -10.3%
33 | CC(=O)c1cccc(S(=O)(=O)NCc2cccnc2N(C)C)c1 | -6.06%
34 | COc1ccc(NC(=O)N(C)Cc2ccsc2)cn1 | -3.11%
35 | N#CC1(NC(=O)CN2CCC(c3ccnn3CCO)CC2)CCCC1 | -11.9%
36 | O=C(CN1CCC(c2ccnn2CCO)CC1)NC1CCCC1 | -3.63%
37 | CCOc1cc(C)nc(N2CCN(C(=O)c3cn[nH]c3CC)CC2)n1 | -3.76%
38 | O=C(CN1CCCC1Cn1cncn1)NCCC1=CCCCC1 (centres undefined) | 1.2%
39 | Cn1cc(C2CCCN2Cc2csc(Cc3ccccc3)n2)cn1 (centres undefined) | -8.68%
40 | Cc1ccccc1-c1cc(C(=O)N2CCCC(n3ccnc3C)C2)[nH]n1 (centres undefined) | 13.3%
41 | CCNc1cc2c(nn1)CCN(C(=O)CC1CCCC1)C2 | -5.46%
42 | CN(Cc1cccc(F)c1)C(=O)CN1CCOC(Cn2cncn2)C1 (centres undefined) | -0.78%
43 | Cc1nccn1C1CCCN(C(=O)c2cnc[nH]2)C1 (centres undefined) | -0.305%
44 | COc1c(C)cnc(CN2CCCC2Cn2nc(C)nc2C)c1C (centres undefined) | -3.93%
45 | CCn1cc(NC(=O)NCC(C)N2CCCC2)cn1 (centres undefined) | 22.1%
46 | Cc1ccc(-c2nc(CN3CCCC3Cn3cncn3)cs2)o1 (centres undefined) | -2.7%
47 | c1csc(-c2nc(CN3CCCCC3Cn3cncn3)cs2)c1 (centres undefined) | -14.9%
48 | CNS(=O)(=O)CCCN1CCCC1c1noc(C)n1 (centres undefined) | -3.7%

Row | SMILES | cytotoxicity at 70.5 h
49 | Cc1ccoc1-c1nnc(CN2CCOC(Cn3cccn3)C2)o1 (centres undefined) | -2.97%
50 | CCN1CCN(C2CCN(Cc3nc(CCOC)no3)CC2)C1=O | -3.79%
51 | COc1ccc(C(=O)N2CCCC(n3nc(C)nc3C)C2)c(OC)c1 (centres undefined) | 21.8%
52 | CS(=O)(=O)CCN1CCCC1c1noc(C2CC2)n1 (centres undefined) | 0.883%
53 | Cn1c(NCC(O)c2ccc(Cl)cc2)c(C#N)c(=O)n(C)c1=O (centres undefined) | -4.06%
54 | Cn1c(NCC(O)c2ccccc2F)c(C#N)c(=O)n(C)c1=O (centres undefined) | -1.35%
55 | CC(NC(=O)NCCCc1n[nH]c(N)c1C#N)c1ccccc1F (centres undefined) | 0.683%
56 | CC(NC(=O)NCCCc1n[nH]c(N)c1C#N)c1cccc(Cl)c1 (centres undefined) | -4.21%
57 | Cn1c(NCC(O)c2ccc(F)cc2)c(C#N)c(=O)n(C)c1=O (centres undefined) | -5.75%
58 | CCN1CCN(C(C)CNC(=O)Nc2cnn(CC)c2)CC1 (centres undefined) | -7.65%
59 | CCn1cc(NC(=O)NCC(C)N(C)C)cn1 (centres undefined) | 18.2%
60 | CC(C)N(CC(N)=O)Cc1csc(C(C)(C)C)n1 | 3.87%
61 | O=C1CC(N(C(=O)c2ccc(F)c(F)c2)C2CC2)C(=O)N1 (centres undefined) | -9.51%
62 | CC(C)c1noc(C(C)N2CCN(Cc3ccco3)CC2)n1 (centres undefined) | -9.38%
63 | Cc1ncc2c(n1)CN(CC(=O)Nc1nncs1)CC2 | -6.76%
64 | CN(C)C(=O)CS(=O)(=O)Cc1cc(Cl)c2c(c1)OCO2 | -2.34%
65 | Cc1nc(CN(Cc2cccs2)C2CCS(=O)(=O)C2)oc1C (centres undefined) | -16%
66 | CCc1nnc2n1CCN(C(=O)CN(C)Cc1ccccc1)C2 | -4.4%
67 | CCNc1cc2c(nn1)CCN(C(=O)Cc1noc3ccccc13)C2 | -12.5%
68 | CN(CC(=O)NC1(C#N)CCCC1)C1CCCN(c2cccnn2)C1 (centres undefined) | -1.63%
69 | CCc1ccc(S(=O)(=O)Nc2cc(C(=O)O)c(F)cc2F)s1 | 26.3%
70 | Cc1nc(C2CCCN(C(=O)c3ccc(OCC4CC4)cc3)C2)no1 (centres undefined) | 31%
71 | Cc1cn2c(n1)CCC(NC(=O)CCn1cncn1)C2 (centres undefined) | -8.43%
72 | CN(C)CC1CN(Cc2csc(C3CCCC3)n2)CCO1 (centres undefined) | -12.3%

Row | SMILES | cytotoxicity at 70.5 h
73 | COCCN1CCC(CNC(=O)c2cc(C)cc(C)c2)C1 (centres undefined) | -11.9%
74 | CCc1nc2n(n1)CC(NCc1noc(-c3ccccc3)n1)CC2 (centres undefined) | 12.2%
75 | O=C(c1cccn1Cc1cccs1)N1CCCC1Cn1cccn1 (centres undefined) | -20.8%
76 | OCCn1cc(CN2CCN(CCOCC(F)(F)F)CC2)cn1 | 6.14%
77 | CCc1nnc2n1CCN(Cc1ccc3c(c1)OCCO3)C2 | 15.4%
78 | CN(Cc1cnn(C)c1)C(=O)NCc1csc(Br)c1 | 17.7%
79 | CCc1nnc2n1CCN(Cc1ccc(C(=O)N3CCCC3)cc1)C2 | -25.8%
80 | Cc1cc(C2CCCN(C(=O)CN3CCN(C)CC3)C2)n[nH]1 (centres undefined) | -11.8%
81 | Cc1ncsc1C(=O)NCc1cccs1 | -16.4%
82 | Cn1cc(CCNC(=O)CCc2ccc3c(c2)OCO3)cn1 | -8.33%
83 | CC(NC(=O)NCCCn1cncn1)c1ccc2c(c1)OCCO2 (centres undefined) | -7.07%
84 | Cc1ccc(C(C)N(C)Cc2nc3c(cnn3C)c(=O)[nH]2)cc1 (centres undefined) | -17.2%
85 | CC(c1ccco1)N(C)Cc1nc2c(cnn2C)c(=O)[nH]1 (centres undefined) | -11.1%
86 | CC(C(N)=O)N(C)CCCc1cc(-c2ccccc2)no1 (centres undefined) | -2.88%
87 | CS(=O)(=O)NC1CCN(C(=O)NCCNc2ccccn2)CC1 | 20.3%
88 | CCOc1ncccc1NC(=O)N1CCN(c2cccc(C)c2C)CC1 | 21.9%
89 | CC(=O)NCCNC(=O)N(C)Cc1ccc2c(c1)OCCO2 | -12%
90 | N#Cc1ccccc1OCCN1CCC(N2CCNC2=O)CC1 | -11.9%
91 | O=C(CN1CCOC(Cn2cccn2)C1)Nc1nccs1 (centres undefined) | -16.1%
92 | COc1nc(C)cc(C)c1CNC(=O)N(C)Cc1cnn(C)c1 | -18%
93 | OCCn1cc(CN2CCN(CCOc3ccccc3)CC2)cn1 | -16%
94 | Cc1cnn(CCNCc2ccc(C#N)cc2F)c1 | -13.7%
95 | Cc1cnn(CCNCc2ccc(F)cc2Cl)c1 | -10.2%
96 | Cc1nn(C)c(C)c1C1CCCN1C(=O)c1ccc(NC2CC2)nc1 (centres undefined) | -17.5%

Row | SMILES | cytotoxicity at 70.5 h
97 | CNc1nc(CNC(=O)Nc2cccc(F)c2)cs1 | -6.65%
98 | COCCCN1CCCN(C(C)c2nc(C3CC3)no2)CC1 (centres undefined) | -4.41%
99 | O=C(CN1CCOC(Cn2cccn2)C1)NCc1cccs1 (centres undefined) | -8.73%
100 | Cc1nc(C2CCCN2Cc2nnc(C3CC3)o2)no1 (centres undefined) | 0.406%
101 | CS(=O)(=O)N1CCCN(C(=O)c2ccc(Cn3ccccc3=O)o2)CC1 | -7.8%
102 | COc1ccccc1CC(=O)N1CCC(NCc2cccnc2)CC1 | 24%
103 | Cc1nc(C2CCCN2Cc2nc(C)c(C)o2)no1 (centres undefined) | -2.71%
104 | Cn1nccc1C1CCN(Cc2csc(-c3ncccn3)n2)CC1 | -5.7%
105 | COCc1ccccc1CNc1nnc(C)c(C)c1C#N | 21.2%
106 | NC(=O)Cc1ccc(NC(=O)C2CCOCC2)cc1 | -3.85%
107 | CSc1ccc(CNC(c2ccccc2)c2nccn2C)cc1 (centres undefined) | -1.21%
108 | Cn1ccnc1C(NCc1csc(Br)c1)c1ccccc1 (centres undefined) | -1.31%
109 | CC(=O)NCCNC(=O)c1sc(-c2ccc(Cl)s2)nc1C | 28.8%
110 | Cc1ncsc1C(=O)NCCn1nc2ccccn2c1=O | -13.7%
111 | c1cnc(-c2nc(CN3CCC(c4ccn[nH]4)CC3)cs2)nc1 | 0.264%
112 | CC(=O)N1CCCN(C(=O)c2csc(-c3ccc(C)cc3C)n2)CC1 | -4.64%
113 | O=C(NCc1ccccn1)Nc1cc(C(F)(F)F)c[nH]c1=O | 9.08%
114 | NC(=O)C1CCN(C(=O)c2ccn(-c3ccc(F)cc3)n2)C1 (centres undefined) | -1.48%
115 | CC(=O)N1CCN(C(=O)NCc2csc(Br)c2)CC1 | -9.87%
116 | CCOc1cc(C)nc(N2CCN(C(=O)c3ccc[nH]3)CC2)n1 | -7.65%
117 | CC(C)CCOCCNC(=O)Nc1cc(C(F)(F)F)c[nH]c1=O | -2.4%
118 | CCOC(=O)c1sc2ccsc2c1CNC(=O)CC | -3.4%
119 | c1nc2n(n1)CC(NCc1nc(-c3ccsc3)no1)CC2 (centres undefined) | -8.53%
